Results from patent US10351547B2, “Somatostatin modulators and uses thereof” (priority 2016, dated 2019).
Like-named read-outs stand apart in the source and are kept apart here.

Molecular target: human SSTR2 (Homo sapiens (Human), UniProt P30874)
Experiment: Human SSTR2 intracellular cAMP functional assay for agonists (HTRF)
Type: cell-based
Outline: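 Cells bearing human SSTR2 exposed to compound for 20 minutes at 37 °C; after lysis, cAMP measured by time-resolved fluorescence (HTRF) and converted via a standard curve. EC50 calculated from cAMP versus compound concentration.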

[1] = CHO-K1 cells stably expressing human SSTR2, NKH477-stimulated cAMP, read-out: EC50 (inhibition of cAMP activities via human SST2R)

Sequence of human SSTR2 (P30874 whole entry): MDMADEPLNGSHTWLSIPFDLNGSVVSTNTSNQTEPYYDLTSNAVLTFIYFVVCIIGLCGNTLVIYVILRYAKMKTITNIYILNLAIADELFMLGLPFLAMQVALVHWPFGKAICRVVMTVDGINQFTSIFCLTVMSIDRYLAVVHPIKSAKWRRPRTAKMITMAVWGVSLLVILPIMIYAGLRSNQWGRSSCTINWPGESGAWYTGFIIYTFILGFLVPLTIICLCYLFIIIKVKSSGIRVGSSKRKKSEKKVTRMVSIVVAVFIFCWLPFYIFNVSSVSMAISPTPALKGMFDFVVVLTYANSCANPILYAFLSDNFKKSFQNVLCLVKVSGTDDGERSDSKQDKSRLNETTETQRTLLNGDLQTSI

| Structure (SMILES) | EC50 [1] [nM] | EC50 [nM] |
| --- | --- | --- |
| COC(=O)Nc1c(C#N)cccc1-c1ccc2ncc(-c3cc(F)cc(OC)c3)c(N3CCC(N)CC3)c2c1 [2-167, methyl N-{2-[4-(4-aminopiperidin-1-yl)-3-(3-fluoro-5-methoxyphenyl)quinolin-6-yl]-6-cyanophenyl}carbamate] | < 10 |  |
| Cc1cc(F)cc(-c2cnc3ccc(-c4cncc(F)c4C=NO)cc3c2N2CCC(N)CC2)c1 [2-168, 1-(6-{5-fluoro-4-[(hydroxyimino)methyl]pyridin-3-yl}-3-(3-fluoro-5-methylphenyl)quinolin-4-yl)piperidin-4-amine] | < 10 |  |
| Cc1cc(F)cc(-c2cnc3ccc(-c4cncc(F)c4N)cc3c2N2CCC(N)CC2)c1 [2-169, 3-[4-(4-aminopiperidin-1-yl)-3-(3-fluoro-5-methylphenyl)quinolin-6-yl]-5-fluoropyridin-4-amine] | < 10 |  |
| CONC(=O)Nc1c(F)cncc1-c1ccc2ncc(-c3cc(C)cc(F)c3)c(N3CCC(N)CC3)c2c1 [2-172, 1-{3-[4-(4-aminopiperidin-1-yl)-3-(3-fluoro-5-methylphenyl)quinolin-6-yl]-5-fluoropyridin-4-yl}-3-methoxyurea] | < 10 |  |
| COC(=O)Nc1c(F)cccc1-c1ccc2ncc(-c3cc(F)cc(OC)c3)c(N3CCC(N)CC3)c2c1 [2-173, methyl N-{2-[4-(4-aminopiperidin-1-yl)-3-(3-fluoro-5-methoxyphenyl)quinolin-6-yl]-6-fluorophenyl}carbamate] | < 10 |  |
| CONC(=O)Nc1c(F)cccc1-c1ccc2ncc(-c3cc(F)cc(OC)c3)c(N3CCC(N)CC3)c2c1 [2-174, 1-{2-[4-(4-aminopiperidin-1-yl)-3-(3-fluoro-5-methoxyphenyl)quinolin-6-yl]-6-fluorophenyl}-3-methoxyurea] | < 10 |  |
| COc1cc(F)cc(-c2cnc3ccc(-c4cccc(F)c4NC(=O)N4CCC4)cc3c2N2CCC(N)CC2)c1 [2-175, N-{2-[4-(4-aminopiperidin-1-yl)-3-(3-fluoro-5-methoxyphenyl)quinolin-6-yl]-6-fluorophenyl}azetidine-1-carboxamide] |  | 10 to 100 |
| NC1CCN(c2c(-c3cc(F)cc(C(F)(F)F)c3)cnc3ccc(-c4cncc(F)c4C=NO)cc23)CC1 [2-176, 1-(6-{5-fluoro-4-[(hydroxyimino)methyl]pyridin-3-yl}-3-[3-fluoro-5-(trifluoromethyl)phenyl]quinolin-4-yl)piperidin-4-amine] | < 10 |  |
| N#Cc1cncc(-c2ccc3ncc(-c4cc(F)cc(F)c4)c(N4CCC(N)CC4)c3c2)c1N [2-177, 4-amino-5-[4-(4-aminopiperidin-1-yl)-3-(3,5-difluorophenyl)quinolin-6-yl]pyridine-3-carbonitrile] | < 10 |  |
| Cc1cc(F)cc(-c2cnc3ccc(-c4cc(F)cnc4N)cc3c2N2CCC(N)CC2)c1 [2-178, 3-[4-(4-aminopiperidin-1-yl)-3-(3-fluoro-5-methylphenyl)quinolin-6-yl]-5-fluoropyridin-2-amine] | < 10 |  |
| N#Cc1cc(F)c(F)c(-c2ccc3ncc(-c4cc(F)cc(F)c4)c(N4CCC(N)CC4)c3c2)c1N [2-179, 2-amino-3-[4-(4-aminopiperidin-1-yl)-3-(3,5-difluorophenyl)quinolin-6-yl]-4,5-difluorobenzonitrile] | < 10 |  |
| COC(=O)Nc1c(C#N)cc(F)c(F)c1-c1ccc2ncc(-c3cc(F)cc(F)c3)c(N3CCC(N)CC3)c2c1 [2-180, methyl N-{2-[4-(4-aminopiperidin-1-yl)-3-(3,5-difluorophenyl)quinolin-6-yl]-6-cyano-3,4-difluorophenyl}carbamate] | < 10 |  |
| Cc1cc(F)cc(-c2cnc3ccc(-c4cncc(Cl)c4N)cc3c2N2CCC(N)CC2)c1 [2-181, 3-[4-(4-aminopiperidin-1-yl)-3-(3-fluoro-5-methylphenyl)quinolin-6-yl]-5-chloropyridin-4-amine] | < 10 |  |
| CONC(=O)Nc1ncc(F)cc1-c1ccc2ncc(-c3cc(C)cc(F)c3)c(N3CCC(N)CC3)c2c1 [2-183, 1-{3-[4-(4-aminopiperidin-1-yl)-3-(3-fluoro-5-methylphenyl)quinolin-6-yl]-5-fluoropyridin-2-yl}-3-methoxyurea] | < 10 |  |
| COC(=O)Nc1c(Cl)cncc1-c1ccc2ncc(-c3cc(C)cc(F)c3)c(N3CCC(N)CC3)c2c1 [2-184, methyl N-{3-[4-(4-aminopiperidin-1-yl)-3-(3-fluoro-5-methylphenyl)quinolin-6-yl]-5-chloropyridin-4-yl}carbamate] | < 10 |  |
| COC(=O)Nc1ccc(C#N)cc1-c1ccc2ncc(-c3cc(F)cc(F)c3)c(N3CCC(N)CC3)c2c1 [2-185] | < 10 |  |
| CONC(=O)Nc1c(Cl)cncc1-c1ccc2ncc(-c3cc(C)cc(F)c3)c(N3CCC(N)CC3)c2c1 [2-186, 1-{3-[4-(4-aminopiperidin-1-yl)-3-(3-fluoro-5-methylphenyl)quinolin-6-yl]-5-chloropyridin-4-yl}-3-methoxyurea] | < 10 |  |
| Cc1cc(F)cc(-c2cnc3ccc(-c4cncc(C#N)c4N)cc3c2N2CCC(N)CC2)c1 [2-187, 4-amino-5-[4-(4-aminopiperidin-1-yl)-3-(3-fluoro-5-methylphenyl)quinolin-6-yl]pyridine-3-carbonitrile] | < 10 |  |

| Structure (SMILES) | EC50 [1] [nM] | EC50 [nM] |
| --- | --- | --- |
| Cn1ncc(-c2ccc3ncc(-c4cc(F)cc(F)c4)c(N4CCC(N)CC4)c3c2)c1C=NO [2-188, 1-[3-(3,5-difluorophenyl)-6-{5-[(hydroxyimino)methyl]-1-methyl-1H-pyrazol-4-yl}quinolin-4-yl]piperidin-4-amine] | < 10 |  |
| CONC(=O)Nc1ccc(C#N)cc1-c1ccc2ncc(-c3cc(F)cc(F)c3)c(N3CCC(N)CC3)c2c1 [2-189, 1-{2-[4-(4-aminopiperidin-1-yl)-3-(3,5-difluorophenyl)quinolin-6-yl]-4-cyanophenyl}-3-methoxyurea] | < 10 |  |
| CON(C)C(=O)Nc1c(C#N)cc(F)c(F)c1-c1ccc2ncc(-c3cc(F)cc(F)c3)c(N3CCC(N)CC3)c2c1 [2-191, 1-{2-[4-(4-aminopiperidin-1-yl)-3-(3,5-difluorophenyl)quinolin-6-yl]-6-cyano-3,4-difluorophenyl}-3-methoxy-3-methylurea] | < 10 |  |
| NC1CCN(c2c(-c3cc(F)cc(F)c3)cnc3ccc(-c4cncc(Cl)c4C=NO)cc23)CC1 [2-192, 1-(6-{5-chloro-4-[(hydroxyimino)methyl]pyridin-3-yl}-3-(3,5-difluorophenyl)quinolin-4-yl)piperidin-4-amine] | < 10 |  |
| COCOc1c(C#N)cc(F)cc1-c1ccc2ncc(-c3cc(F)cc(F)c3)c(N3CCC(N)CC3)c2c1 [2-194, 3-[4-(4-aminopiperidin-1-yl)-3-(3,5-difluorophenyl)quinolin-6-yl]-5-fluoro-2-(methoxymethoxy)benzonitrile] | < 10 |  |
| NC1CCN(c2c(-c3cc(F)cc(F)c3)cnc3ccc(-c4ncccc4C=NO)cc23)CC1 [2-195, 1-[3-(3,5-difluorophenyl)-6-{3-[(hydroxyimino)methyl]pyridin-2-yl}quinolin-4-yl]piperidin-4-amine] | < 10 |  |
| NC1CCN(c2c(-c3cc(F)cc(F)c3)cnc3ccc(-c4cccnc4C=NO)cc23)CC1 [2-196, 1-[3-(3,5-difluorophenyl)-6-{2-[(hydroxyimino)methyl]pyridin-3-yl}quinolin-4-yl]piperidin-4-amine] | < 10 |  |
| COC(=O)Nc1c(F)cc(F)cc1-c1ccc2ncc(-c3cc(C)cc(F)c3)c(N3CCC(N)CC3)c2c1 [2-197, methyl N-{2-[4-(4-aminopiperidin-1-yl)-3-(3-fluoro-5-methylphenyl)quinolin-6-yl]-4,6-difluorophenyl}carbamate] | < 10 |  |
| CON(C)C(=O)Nc1c(F)cc(F)cc1-c1ccc2ncc(-c3cc(C)cc(F)c3)c(N3CCC(N)CC3)c2c1 [2-198, 1-{2-[4-(4-aminopiperidin-1-yl)-3-(3-fluoro-5-methylphenyl)quinolin-6-yl]-4,6-difluorophenyl}-3-methoxy-3-methylurea] | < 10 |  |
| Cc1cc(F)cc(-c2cnc3ccc(-c4cc(F)cc(F)c4NC(=O)N(C)C)cc3c2N2CCC(N)CC2)c1 [2-199, 1-{2-[4-(4-aminopiperidin-1-yl)-3-(3-fluoro-5-methylphenyl)quinolin-6-yl]-4,6-difluorophenyl}-3,3-dimethylurea] | < 10 |  |
| NC1CCN(c2c(-c3cc(F)cc(F)c3)cnc3ccc(-c4cccc(C=NO)n4)cc23)CC1 [2-200, 1-[3-(3,5-difluorophenyl)-6-{6-[(hydroxyimino)methyl]pyridin-2-yl}quinolin-4-yl]piperidin-4-amine] | < 10 |  |
| Cc1ccc(F)c(C=NO)c1-c1ccc2ncc(-c3cc(F)cc(F)c3)c(N3CCC(N)CC3)c2c1 [2-202, 1-[3-(3,5-difluorophenyl)-6-{3-fluoro-2-[(hydroxyimino)methyl]-6-methylphenyl}quinolin-4-yl]piperidin-4-amine] | < 10 |  |
| NC1CCN(c2c(-c3cc(F)cc(F)c3)cnc3ccc(-c4ccnc(C=NO)c4)cc23)CC1 [2-203, 1-[3-(3,5-difluorophenyl)-6-{2-[(hydroxyimino)methyl]pyridin-4-yl}quinolin-4-yl]piperidin-4-amine] | < 10 |  |
| COCCOc1c(C#N)cc(F)cc1-c1ccc2ncc(-c3cc(C)cc(F)c3)c(N3CCC(N)CC3)c2c1 [2-204, 3-[4-(4-aminopiperidin-1-yl)-3-(3-fluoro-5-methylphenyl)quinolin-6-yl]-5-fluoro-2-(2-methoxyethoxy)benzonitrile] | < 10 |  |
| COC(=O)Nc1c(C#N)cc(F)c(F)c1-c1ccc2ncc(-c3cc(C)cc(F)c3)c(N3CCC(N)CC3)c2c1 [2-205] | < 10 |  |
| CON(C)C(=O)Nc1c(C#N)cc(F)c(F)c1-c1ccc2ncc(-c3cc(C)cc(F)c3)c(N3CCC(N)CC3)c2c1 [2-206, 1-{2-[4-(4-aminopiperidin-1-yl)-3-(3-fluoro-5-methylphenyl)quinolin-6-yl]-6-cyano-3,4-difluorophenyl}-3-methoxy-3-methylurea] | < 10 |  |
| COC(=O)Nc1c(F)cccc1-c1ccc2ncc(-c3cc(C)cc(F)c3)c(N3CCC(N)CC3)c2c1 [2-209, methyl N-{2-[4-(4-aminopiperidin-1-yl)-3-(3-fluoro-5-methylphenyl)quinolin-6-yl]-6-fluorophenyl}carbamate] | < 10 |  |
